The values that follow come from patent publication EP0443559A2, “HIV protease inhibiting agents” (BIO-MEGA/BOEHRINGER INGELHEIM RESEARCH INC., priority 1990, dated 1991).

One test has as its target HIV protease (Human immunodeficiency virus type 1 group M subtype B, UniProt P04585). Put plainly: biochemical. An excerpt:
The procedure is based on the capacity of the test compound to inhibit enzymatic cleavage by HIV protease of a decapeptide (the substrate) having an amino acid sequence which includes a known HIV protease cleavage site of a HIV polyprotein; see H.G. Krausslich et al., Proc. Natl. Acad. Sci. USA, 86,807(1989).
Recombinant HIV Protease HPLC Assay: Enzyme: HIV protease was expressed in E. coli [construct pBRT1 prt⁺, see W.G. Farmerie et al., Science, 236, 305 (1987)], according to the following protocol: Unless stated otherwise, all solutions are aqueous solutions.
E. coli cells containing the pBRT1 prt⁺ plasmid were used to inoculate a seed culture media composed of Luria-Bertani Broth containing 100µg/mL of ampicillin. Flasks were incubated at 37° under agitation for 17 h. Production flasks containing sterile M9 broth, supplemented with 100µg/ml of ampicillin, were inoculated at a level of 1% (v/v) using the seed culture described above. Total volume in each production flask was 500 mL in a 2 L Erlenmeyer flask. Flasks were incubated at 37° under agitation until a cell concentration corresponding to an optical density (λ= 540 m) of 0.6 was reached (no dilution). This time span was routinely 3-4 h. Flasks were then supplemented with 5mM isopropylthiogalactoside (IPTG, Research Organics, Cleveland, Ohio, USA) and incubation was continued until the cell concentration reached an optical density of 0.2 at 16-fold dilution. Flasks were then supplemented with 1mM phenylmethylsulfonyl fluoride (PMSF) and rapidly chilled to 4°. The bacterial cells were recovered by centrifugation at 4°. The wet pellet was stored at -70°.
All steps below were performed at 4° unless otherwise indicated. Thawed cells were mixed with buffer A [50 mM […] HCl(Tris-HCl, pH 7.4); 0.6 mM ethylenediaminetetraacetic acid (EDTA); 0.375 M NaCl, 0.2% Nonidet P-40 ^R (BDH Chemicals Ltd., Poole, UK); 1mM PMSF], at a ratio of one part cells to nine parts buffer A. Diatomaceous earth (Celite 545 ^R , John Manville, Lompoc, CA, USA) was added at a ratio of two parts to one part of wet cell weight. The resulting slurry was homogenized at high speed (ca. 20,000 rpm) on a Waring ^R industrial blender for 8 x 15 sec. pulses. Cell debris/Celite ^R was collected by centrifugation and the resulting pellet was extracted with 4.5 parts of buffer A to one part wet solids using the homogenization procedure described above. Supernatants from both homogenization steps were combined and soluble protein was precipitated by the addition of solid (NH₄)₂SO₄ to yield a final concentration of 75% saturation. This mixture was agitated for 60 min and the precipitate was recovered by centrifugation. The resulting pellet was suspended in buffer B [50mM Tris-HCl, pH 8; 30 mM NaCl; 1 mM DL-dithio-threitol (DTT); 1 mM EDTA; 1 mM PMSF; 10% glycerol], and dialyzed for 18h against the same buffer.
An aliquot of the dialyzed extract containing 150 mg of the protein was loaded onto a Sephadex A25 ^R anion exchange column. (Pharmacia, Uppsala, Sweden) with bed dimensions of 70 cm length and 2.5 cm diameter. The sample was eluted isocratically with buffer B at a linear flow rate of 10 cm/h. Fractions containing HIV protease activity (see below for assay description) were combined, and soluble protein was precipitated by the addition of saturated aqueous (NH₄)₂SO₄ to yield a total (NH₄)₂SO₄ concentration of 85% saturation. Precipitated protein was removed by centrifugation and the resulting pellet was dissolved in buffer C [50 mM 2-(4-morpholino)ethanesulfonic acid (MES), pH 5.5; 150 mM NaCl; 1 mM DTT; 1 mM EDTA; 10% glycerol]. This preparation was dialyzed for 18h against buffer C, and then frozen at -70°. All crude extracts were purified by chromatography in aliquots containing 150 mg of protein in the same manner as described above. The final preparations from each batch were pooled, divided into 34µL aliquots and stored at -70°.

In the next test the test system is HIV. As to conditions: at 20µg/mL; C8166 cells, H9/HTLV-IIIB, 72 h.

One may read the IC50 as the concentration at which inhibition is half-maximal. A higher IC50 goes with lower potency.

At HIV protease, `CC(C)C[C@H](NC(=O)C[C@H](O)[C@H](CC1CCCCC1)NC(=O)[C@@H](NC(=O)[C@@H](O)CO)C(C)C)C(=O)N[C@@H](Cc1ccccc1)C(N)=O` [Example 4, [(S)-HOCH₂CH(OH)C(O)]-Val-ACHPA-Leu-Phe-NH₂] showed an IC50 of 180 nM.

For the compound `CC[C@H](C)[C@H](NC(=O)[C@H](CCC(N)=O)NC(=O)[C@H](CC(C)C)NC[C@H](Cc1ccccc1)NC(=O)[C@@H](NC(C)=O)[C@@H](C)CC)C(N)=O` [Example 16, Ac-Ile-Pheψ[CH₂NH]Leu-Gln-Ile-NH₂], at HIV protease, inhibition was half-maximal at 180 nM (IC50).

Regarding `CC(=O)N[C@H](C(=O)N[C@@H](CC1CCCCC1)[C@@H](O)CC(=O)N[C@@H](CC(C)C)C(=O)N[C@@H](Cc1ccccc1)C(N)=O)C(C)C` [Example 5, Ac-Val-ACHPA-Leu-Phe-NH₂], in the test with HIV, the “inhibition of syncytia formation” value is 97%. Moreover, the IC50 at HIV protease was 280 nM. Turning to `CC(=O)N[C@H](C(=O)N[C@H](CN[C@@H](CC(C)C)C(=O)N[C@H](C(=O)N[C@@H](COCc1ccccc1)C(N)=O)C(C)C)Cc1ccccc1)C(C)C` [Example 22, Ac-Val-Pheψ[CH₂NH]Leu-Val-Ser(OBzl)-NH₂], half-maximal inhibition against HIV protease (IC50) was put at 29 nM. The same measure, in the same setting: with `CC(C)C[C@H](NC(=O)C[C@H](O)[C@H](CC1CCCCC1)NC(=O)[C@@H](NC(=O)CCc1ccc(OCC(=O)OCc2ccccc2)cc1)C(C)C)C(=O)N[C@@H](Cc1ccccc1)C(N)=O` [Example 2, [4-(BzlOC(O)CH₂O)Ph]CH₂CH₂C(O)-Val-ACHPA-Leu-Phe-NH₂] the figure was 170 nM; with `CC[C@H](C)[C@H](NC(=O)[C@H](CCC(N)=O)NC(=O)[C@H](CC(C)(C)C)NC[C@H](Cc1ccccc1)NC(=O)[C@@H](NC(C)=O)C(C)C)C(N)=O` [Example 21, Ac-Val-Pheψ[CH₂NH]Tba-Gln-Ile-NH₂], 720 nM. Turning to `CC(=O)N[C@H](C(=O)N[C@@H](CC1CCCCC1)[C@@H](O)CC(=O)N[C@@H](CC(C)C)C(=O)N[C@@H](Cc1ccccc1)C(N)=O)C(C)(C)C` [Example 11, Ac-Tbg-ACHPA-Leu-Phe-NH₂], the “inhibition of syncytia formation” value in the test with HIV stood at 72%. On HIV protease, this compound came in with an IC50 of 200 nM. In the case of `CC[C@H](C)[C@H](NC(=O)[C@H](CCC(N)=O)NC(=O)[C@H](CC(C)C)NC[C@H](Cc1ccccc1)NC(=O)[C@@H](NC(=O)[C@H](C)O)C(C)C)C(N)=O` [Example 19, [(S)-CH₃CH(OH)C(O)]-Val-Pheψ[CH₂NH]Leu-Gln-Ile-NH₂], the IC50 at HIV protease was determined as 660 nM. Regarding `CC[C@H](C)[C@H](NC(=O)[C@H](CCC(=O)O)NC(=O)[C@H](CC(C)C)NC[C@H](Cc1ccccc1)NC(=O)[C@@H](NC(C)=O)C(C)C)C(N)=O` [Example 12, Ac-Val-Pheψ[CH₂NH]Leu-Glu-Ile-NH₂], the IC50 against HIV protease was found to be 6.7 nM.
